Molecules are shown by their SMILES.

The subject of test [1] is T1, dried V. bombycina PPO (polyphenol oxidase).
T1 construct: single band about 25 kDa on SDS-PAGE
Briefly: spectrophotometric oxidation at […] nm, Lineweaver-Burk. Type of test: biochemical, Volvariella bombycina.

Test [2] shares this test system. Described as above. The class given is biochemical, Volvariella bombycina. The note with it: optimum pH 8.0, 15 °C.

As for `Cc1ccc(O)c(O)c1` [4-methyl catechol], the Km in test [1] (optimum pH 9.0, 20 °C) is 3170 µM.
Consider `Oc1ccccc1O` [catechol], for which, in test [1] (optimum pH 6.5, 15 °C, 0.1 M phosphate buffer), the Km turned out to be 1670 µM.
With `Oc1cccc(O)c1O` [pyrogallol], the Km in test [2] came out at 2670 µM.

The values above are taken from publication PMC9855422, “Purification and Properties of Polyphenol Oxidase of Dried Volvariella bombycina” (Biology, 2022).
